Results on 19 molecules are retold here after article PMC6930573, “Discovery of Selective Butyrylcholinesterase (BChE) Inhibitors through a Combination of Computational Studies and Biological Evaluations” (Molecules, 2019).

One series deals with hAChE. The arrangement: method as in earlier work. The settings on record: Figure 1; ref 22 (1), 23 (2); cited from earlier work.
A further series deals with hBChE. The settings on record: read-out: IC50 (hBChE); Figure 1; ref 22 (1), 23 (2), 24 (3), 25 (4); cited from earlier work.
Series [1] deals with T1, AChE (from human erythrocytes) (Homo sapiens, UniProt P22303).
T1 construct: AChE (from human erythrocytes, C0663); purchased Sigma-Aldrich C0663; host or cells: human erythrocytes
T1 sequence (P22303 other isoform, or with tags, fused parts or gaps): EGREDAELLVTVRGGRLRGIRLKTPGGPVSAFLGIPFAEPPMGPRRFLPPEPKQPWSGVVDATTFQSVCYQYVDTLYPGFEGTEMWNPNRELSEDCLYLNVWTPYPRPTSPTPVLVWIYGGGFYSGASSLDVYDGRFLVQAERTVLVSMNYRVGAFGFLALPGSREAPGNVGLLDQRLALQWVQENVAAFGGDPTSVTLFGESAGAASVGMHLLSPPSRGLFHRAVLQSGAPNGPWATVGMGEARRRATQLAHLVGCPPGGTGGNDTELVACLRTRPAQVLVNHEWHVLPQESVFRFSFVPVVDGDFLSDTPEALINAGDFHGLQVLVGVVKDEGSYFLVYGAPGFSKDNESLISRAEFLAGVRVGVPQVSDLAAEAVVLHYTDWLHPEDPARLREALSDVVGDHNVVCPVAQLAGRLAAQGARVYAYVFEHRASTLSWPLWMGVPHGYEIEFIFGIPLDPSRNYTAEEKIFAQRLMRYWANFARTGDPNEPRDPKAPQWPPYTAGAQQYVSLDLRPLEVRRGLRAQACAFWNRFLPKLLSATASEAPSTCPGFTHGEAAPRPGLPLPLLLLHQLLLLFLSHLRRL
As to the kind of experiment: biochemical. In kind it is biochemical. The settings on record: mean ± SEM of three experiments; for AChE IR (inhibition ratio): at 10 μM. As to the method:
(§1) Modified Ellman’s assay was performed to measure the inhibitory effects of purchased compounds on ChEs using a Thermo Fisher Scientific spectrophotometer. AChE (from human erythrocytes, C0663), BChE (from human serum, B4186), 5,5-dithiobis-(2-nitrobenzoic acid) (DTNB, D218200), acetylthiocholine iodide (ATC, A5751), and butyrylthiocholine iodide (BTC, B3253) were purchased from Sigma-Aldrich (St. Louis, MO, USA).
(§2) For measurement, a cuvette containing 30 μL of phosphate buffer, 10 μL of AChE (2.5 units/mL) or BChE (2.5 units/mL), and 10 μL of the test compound solution was allowed to stand for 5 min before 10 μL of DTNB was added. After the addition of 20 μL of ATC or BTC, the reaction was initiated and the solution was mixed immediately. […] 10 μL of phosphate-buffered solution replaced the enzyme solution were used to determine the blank value. All the measurements were done in triplicate. The inhibition curve was drawn by plotting the percentage enzyme activity (100% for the reference) versus the logarithm of the test compound concentration. The IC50 values were calculated by GraphPad Prism 6 (GraphPad Software, San Diego, CA, USA), and the data were shown as mean ± standard error of mean (SEM).

The next series has as its target T2, BChE (from human serum) (Homo sapiens, UniProt P06276).
T2 construct: BChE (from human serum, B4186); purchased Sigma-Aldrich B4186; host or cells: human serum
As to the kind of experiment: biochemical. As to conditions: for BChE IR (inhibition ratio): at 10 μM; for BChE IR (inhibition ratio) / IC50: mean ± SEM of three experiments. It is filed as biochemical. The method, then: as §1, §2

Another series concerns SH-SY5Y cells. The series can be described thus: MTT cell viability assay. It is filed as cell-based. As to conditions: 10 μM and 50 μM, 24 h. The method, then: The human neuroblastoma SH-SY5Y cells (3 × 10^3, DMEM medium supplemented with 10% fetal bovine serum, volume 0.1 mL) were placed in a 96-well flat-bottomed plate, in a humidified atmosphere of 95% air and 5% CO2 at 37 °C and grown to 80% confluence. Before cell treatment, the complete medium was replaced with reduced-serum medium (BI, 01-052-1ACS). Then, cells were treated with various concentrations of compounds for 24 h. MTT reagent (D&B, Q108115) (0.5 mg/mL) was added to the wells and the plates were incubated for 4 h at 37 °C. Supernatants were carefully removed, and 150 μL of dimethylsulfoxide (DMSO) were added into each well. The absorbance was measured at 570 nm using the spectrophotometer (Thermo, multiskan FC, USA). Cells were treated in quadruplicate. The values are the mean ± SD of three independent experiments.
Background: Tetrazolium assays rely on reduction of a dye to a coloured formazan, in cell work by metabolically active cells.

Another series has as its target T3, BChE (Homo sapiens, UniProt P06276).
T3 construct: BChE (from human serum, B4186); purchased Sigma-Aldrich B4186; host or cells: human serum
The series can be described thus: Enzyme kinetic study with BChE (substrate BTC). It is filed as biochemical. The settings on record: for Apparent Vmax: mean ± SD; for Kiu (inhibition constant for the uncompetitive part of inhibition) / Ki: mean ± SEM of three experiments; for Ki: read-out: Kic (inhibition constant for the competitive part of inhibition); for Mode of inhibition: substrate 90–904 μM, inhibitor 0.5–2 μM. As to the method:
Kinetic studies were performed in the same manner as the determination of ChE inhibition as previously described. The substrate (BTC) was used at various concentrations (90, 150, 226, 452, and 904 μM) for each test compound concentration and the enzymatic reaction was extended to four minutes before determining the absorption. The Vmax and Km values of the Michaelis–Menten kinetics were calculated by nonlinear regression from substrate–velocity curves using Graphpad Prism 6 (GraphPad Software, San Diego, CA, USA) (Table S1). […]

Molecules are shown by their SMILES. Where “and” joins values, the source holds several entries; their conditions need not be identical. Equal values may be shown once.

T3 sequence (P06276 29-602): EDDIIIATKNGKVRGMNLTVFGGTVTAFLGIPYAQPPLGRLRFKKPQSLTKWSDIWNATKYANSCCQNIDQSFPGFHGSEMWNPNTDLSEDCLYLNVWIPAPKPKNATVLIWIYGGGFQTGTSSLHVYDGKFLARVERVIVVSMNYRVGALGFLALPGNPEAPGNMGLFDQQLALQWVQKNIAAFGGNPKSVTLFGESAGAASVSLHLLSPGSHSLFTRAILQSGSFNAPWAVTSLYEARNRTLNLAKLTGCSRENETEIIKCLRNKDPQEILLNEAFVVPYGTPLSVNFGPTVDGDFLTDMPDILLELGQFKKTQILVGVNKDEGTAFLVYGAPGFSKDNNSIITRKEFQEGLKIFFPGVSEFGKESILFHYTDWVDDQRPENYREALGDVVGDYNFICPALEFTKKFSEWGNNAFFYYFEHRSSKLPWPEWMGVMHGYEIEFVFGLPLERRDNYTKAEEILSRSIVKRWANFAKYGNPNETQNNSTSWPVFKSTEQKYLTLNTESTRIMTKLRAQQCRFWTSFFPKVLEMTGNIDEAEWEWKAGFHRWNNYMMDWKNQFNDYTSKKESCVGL
T2 sequence (P06276 29-602): as above

`COCCN(CC1CCCN(Cc2ccccc2)C1)S(=O)(=O)c1ccc2ccccc2c1` (centres unmarked) [Compound 1, N-((1-benzylpiperidin-3-yl)methyl)-N-(2-methoxyethyl)naphthalene-2-sulfonamide]: the IC50 in the series on hAChE was above 10000 nM.
Consider `CN(C)CCN(CC1CCCN(C2Cc3ccccc3C2)C1)C(=O)c1ccc2ccccc2c1` (centres unmarked) [Compound 2], for which the IC50 with hAChE was above 10000 nM.
On to `O=C1NCCCc2c1c1ccccc1n2CCc1cccc(F)c1` [Compound 3], for which, in the series with hBChE, the IC50 is 1.8 nM.
For `CCCCCCCNC(=O)Oc1ccc2c(c1)CN(C)C(c1cccs1)N2C` (centres unmarked) [Compound 4], the IC50 with hBChE was 13 nM.
On to `Cc1ccc(S(=O)(=O)Nc2nc3ccccc3nc2NCc2ccc(F)cc2)cc1C` [Compound 5], for which the “AChE IR (inhibition ratio)” value in series [1] is −0.31 ± 0.5%. Further, the “BChE IR (inhibition ratio)” value on BChE (from human serum) is 7.2 ± 0.6%.
The matching figures for `Cc1nc(-c2cccc(F)c2)n(CCC(=O)NCCCc2ccccc2)c(=O)c1CCO` [Compound 6]: −1.5 ± 0.5% and 8.5 ± 0.3%.
The matching figures for `Cc1noc(C)c1CN(C)Cc1ccn(S(=O)(=O)c2ccccc2)c1` [Compound 7]: 0.6 ± 0.6% and 16.3 ± 1.1%.
For the molecule `COc1ccccc1CN1CCCC(CN(CCN(C)C)C(=O)C(=O)c2ccccc2)C1` (centres unmarked) [Compound 8], the “Effect on cell viability (cytotoxicity)” value with SH-SY5Y cells was “none of compounds was observed to affect cell viability”. Moreover, the “Apparent Vmax” value at BChE (inhibitor 0.5 µM) is 0.34 ± 0.01 µM/min. Also, the “Apparent Vmax” value at BChE (inhibitor 1 µM) amounted to 0.27 ± 0.01 µM/min. The “Apparent Vmax” value at BChE (inhibitor 1.5 µM) amounted to 0.25 ± 0.01 µM/min. Further, on BChE (inhibitor 2 µM), the “Apparent Vmax” value came to 0.24 ± 0.01 µM/min. Further, at BChE, the “Kiu (inhibition constant for the uncompetitive part of inhibition)” value is given as 3.61 ± 0.24 µM, the Ki is 880 ± 70 nM and the Mode of inhibition result is listed as “mixed-type inhibitors”. Also, on BChE (from human serum), the “BChE selective index (SI BChE, AChE IC50/BChE IC50)” value was above 30 and the IC50 stood at 1100 ± 600 nM.
For `COCCN1C(=O)N(CCc2ccccc2)C(=O)C12CCN(Cc1ccccc1)CC2` [Compound 9], the “AChE IR (inhibition ratio)” value in series [1] came to 16.0 ± 1.5%. Besides, the “BChE IR (inhibition ratio)” value on BChE (from human serum) amounted to 15.5 ± 1.6%.
`O=C(CC1NC(N2CCN(Cc3ccccc3)CC2)=NC1=O)Nc1ccccc1` (centres unmarked) [Compound 10]: the “AChE IR (inhibition ratio)” value in series [1] is recorded as 7.8 ± 0.7%. Besides, on BChE (from human serum), the “BChE IR (inhibition ratio)” value is 9.9 ± 1.0%.
`O=C(NC1(C(F)(F)F)N=C(c2ccccc2)N(Cc2ccccc2)C1=O)c1ccco1` (centres unmarked) [Compound 11]: in series [1], the “AChE IR (inhibition ratio)” value was −0.7 ± 0.7%. Besides, the “BChE IR (inhibition ratio)” value on BChE (from human serum) is reported as 14.8 ± 1.3%.
Regarding `CC1=NC2C(SC(=S)N2Cc2ccco2)C(=O)N1CC(=O)NCCc1ccccc1` (centres unmarked) [Compound 12], the “AChE IR (inhibition ratio)” value in series [1] is recorded as 1.1 ± 1.0%. The “BChE IR (inhibition ratio)” value on BChE (from human serum) is recorded as −1.8 ± 1.1%.
The like results for `COc1cccc(N(CC(=O)N2CCN(Cc3ccccc3)CC2)S(=O)(=O)c2ccccc2)c1` [Compound 13] were, in that order, 11.3 ± 1.3% and 20.1 ± 1.2%.
The matching figures for `CCN(Cc1ccccc1)C(=O)CCc1nc2ccsc2c(=O)n1Cc1ccccc1` [Compound 14]: 10.9 ± 0.8% and 3.4 ± 0.4%.
Consider `O=C(O)C(c1c[nH]c2ccccc12)N1CCN(c2ccccn2)CC1` (centres unmarked) [Compound 15], for which, in series [1], the “AChE IR (inhibition ratio)” value is 0.6 ± 1.0%. Besides, the “BChE IR (inhibition ratio)” value on BChE (from human serum) is reported as −0.6 ± 0.5%.
The like results for `COc1cccc(S(=O)(=O)NCC2CCCN(Cc3cc4ccccc4o3)C2)c1` (centres unmarked) [Compound 16] were, in that order, 38.7 ± 1.7% and 26.4 ± 1.1%.
The like results for `Cc1cc(C)cc(N(CC(=O)N2CCN(Cc3ccccc3)CC2)S(=O)(=O)c2ccccc2)c1` [Compound 17] were, in that order, 2.9 ± 0.5% and 11.8 ± 1.2%.
Take `COc1ccc(CCN2CCCC(O)(CNCc3cc(C)ccc3C)C2=O)cc1` (centres unmarked) [Compound 18]: in the series with SH-SY5Y cells, the “Effect on cell viability (cytotoxicity)” value was “none of compounds was observed to affect cell viability”. The “Apparent Vmax” value at BChE (inhibitor 0.5 µM) was 0.49 ± 0.01 µM/min. Moreover, the “Apparent Vmax” value at BChE (inhibitor 1 µM) came to 0.42 ± 0.02 µM/min. Further, the “Apparent Vmax” value at BChE (inhibitor 1.5 µM) was determined as 0.39 ± 0.01 µM/min. For the same molecule, the “Apparent Vmax” value on BChE (inhibitor 2 µM) was determined as 0.28 ± 0.02 µM/min. In addition, at BChE, the “Kiu (inhibition constant for the uncompetitive part of inhibition)” value is reported as 2.31 ± 0.32 µM, the Ki was 930 ± 130 nM and the Mode of inhibition entry was “mixed-type inhibitors”. For the same molecule, the “AChE IR (inhibition ratio)” value in series [1] is 11.1% and 11.1 ± 1.5%. At BChE (from human serum), the “BChE selective index (SI BChE, AChE IC50/BChE IC50)” value was above 30; the “BChE IR (inhibition ratio)” value was 58.4% and 58.4 ± 0.9%; half-maximal inhibition (IC50) was put at 6300 ± 2000 nM.
On to `COC(=O)c1c(S(=O)(=O)Nc2ccc(C)cc2)sc2c1CCN(Cc1ccccc1O)C2` [Compound 19], for which, in series [1], the midpoint of inhibition, the IC50, lay at 13800 ± 6000 nM. Also, at BChE (from human serum), the “BChE selective index (SI BChE, AChE IC50/BChE IC50)” value is 6 and the IC50 amounted to 2400 ± 1000 nM.

The IC50 is the concentration at which inhibition is half-maximal.
